From patent US20250000872A1, “FORMULATIONS AND DOSING REGIMENS FOR RIP1 KINASE INHIBITORS FOR TREATING AUTOIMMUNE AND INFLAMMATORY DISEASES” (Eli Lilly and Company, priority 2023, published 2025)

Key:
OATP2B1 = biological target: T1, OATP2B1 (Homo sapiens, UniProt O94956); assay: In vitro drug-drug interaction studies: OATP2B1 transporter inhibition; type: in vitro ADME; settings: based upon in vitro studies
T1 sequence (O94956 1-709): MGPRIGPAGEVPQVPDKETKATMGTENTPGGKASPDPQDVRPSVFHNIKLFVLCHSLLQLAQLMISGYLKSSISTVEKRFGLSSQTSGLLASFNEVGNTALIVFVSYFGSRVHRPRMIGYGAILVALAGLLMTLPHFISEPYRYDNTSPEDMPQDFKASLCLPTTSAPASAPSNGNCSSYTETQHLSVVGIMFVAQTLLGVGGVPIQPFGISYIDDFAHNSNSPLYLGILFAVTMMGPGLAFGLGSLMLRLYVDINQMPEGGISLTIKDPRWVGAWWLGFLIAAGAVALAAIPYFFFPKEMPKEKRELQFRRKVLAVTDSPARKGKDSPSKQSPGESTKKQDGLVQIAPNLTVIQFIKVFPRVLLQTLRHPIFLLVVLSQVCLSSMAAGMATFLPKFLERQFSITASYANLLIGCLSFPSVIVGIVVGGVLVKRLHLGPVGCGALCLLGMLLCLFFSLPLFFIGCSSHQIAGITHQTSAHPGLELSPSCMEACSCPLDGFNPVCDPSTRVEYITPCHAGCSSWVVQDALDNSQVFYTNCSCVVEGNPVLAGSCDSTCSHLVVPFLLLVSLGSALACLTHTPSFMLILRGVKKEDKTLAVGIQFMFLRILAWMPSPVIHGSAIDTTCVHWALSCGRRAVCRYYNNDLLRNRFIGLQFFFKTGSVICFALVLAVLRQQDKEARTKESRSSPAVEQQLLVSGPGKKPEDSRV

CYP3A [1] = assay: Preliminary in vitro CYP3A induction data; type: in vitro ADME
Excerpt: Investigators should be aware of participants' concomitant use of CYP3A substrates.

CYP2D6 = CYP2D6 (Homo sapiens, UniProt P10635); assay: In vitro drug-drug interaction studies: CYP2D6 inhibition; type: in vitro ADME; settings: based upon in vitro studies
Sequence of CYP2D6 (P10635 whole entry): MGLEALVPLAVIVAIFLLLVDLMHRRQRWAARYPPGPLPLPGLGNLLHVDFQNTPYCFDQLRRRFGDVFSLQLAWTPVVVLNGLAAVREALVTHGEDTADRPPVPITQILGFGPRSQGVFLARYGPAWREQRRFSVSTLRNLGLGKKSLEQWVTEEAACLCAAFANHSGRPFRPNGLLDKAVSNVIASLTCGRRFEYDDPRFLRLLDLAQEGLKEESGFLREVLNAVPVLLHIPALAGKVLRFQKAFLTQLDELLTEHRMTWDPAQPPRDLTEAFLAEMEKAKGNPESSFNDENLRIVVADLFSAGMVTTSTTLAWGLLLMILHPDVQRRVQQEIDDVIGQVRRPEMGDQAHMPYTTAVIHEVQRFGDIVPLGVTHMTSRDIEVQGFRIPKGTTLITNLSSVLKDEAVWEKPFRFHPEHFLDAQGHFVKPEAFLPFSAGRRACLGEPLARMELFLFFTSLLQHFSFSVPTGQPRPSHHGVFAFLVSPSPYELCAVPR

CYP2C9 = CYP2C9 (Homo sapiens, UniProt P11712); assay: In vitro drug-drug interaction studies: CYP2C9 inhibition; type: in vitro ADME; settings: based upon in vitro studies
Sequence of CYP2C9 (P11712 whole entry): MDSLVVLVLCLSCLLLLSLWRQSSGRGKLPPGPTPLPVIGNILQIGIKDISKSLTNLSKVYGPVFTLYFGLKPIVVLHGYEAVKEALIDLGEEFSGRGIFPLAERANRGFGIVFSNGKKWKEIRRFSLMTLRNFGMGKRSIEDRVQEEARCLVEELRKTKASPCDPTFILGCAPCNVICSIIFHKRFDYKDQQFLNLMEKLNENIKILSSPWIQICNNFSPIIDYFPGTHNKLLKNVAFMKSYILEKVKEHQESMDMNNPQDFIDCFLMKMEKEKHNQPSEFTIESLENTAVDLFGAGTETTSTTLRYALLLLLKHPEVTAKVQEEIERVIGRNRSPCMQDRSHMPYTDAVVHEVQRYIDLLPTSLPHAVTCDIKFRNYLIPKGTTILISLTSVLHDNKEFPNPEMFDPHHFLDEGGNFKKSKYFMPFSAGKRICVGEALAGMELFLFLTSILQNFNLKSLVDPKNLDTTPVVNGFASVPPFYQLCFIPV

OCT1 = biological target: T2, OCT1 (Homo sapiens, UniProt O15245); assay: In vitro drug-drug interaction studies: OCT1 transporter inhibition; type: in vitro ADME; settings: based upon in vitro studies
T2 sequence (O15245 1-554): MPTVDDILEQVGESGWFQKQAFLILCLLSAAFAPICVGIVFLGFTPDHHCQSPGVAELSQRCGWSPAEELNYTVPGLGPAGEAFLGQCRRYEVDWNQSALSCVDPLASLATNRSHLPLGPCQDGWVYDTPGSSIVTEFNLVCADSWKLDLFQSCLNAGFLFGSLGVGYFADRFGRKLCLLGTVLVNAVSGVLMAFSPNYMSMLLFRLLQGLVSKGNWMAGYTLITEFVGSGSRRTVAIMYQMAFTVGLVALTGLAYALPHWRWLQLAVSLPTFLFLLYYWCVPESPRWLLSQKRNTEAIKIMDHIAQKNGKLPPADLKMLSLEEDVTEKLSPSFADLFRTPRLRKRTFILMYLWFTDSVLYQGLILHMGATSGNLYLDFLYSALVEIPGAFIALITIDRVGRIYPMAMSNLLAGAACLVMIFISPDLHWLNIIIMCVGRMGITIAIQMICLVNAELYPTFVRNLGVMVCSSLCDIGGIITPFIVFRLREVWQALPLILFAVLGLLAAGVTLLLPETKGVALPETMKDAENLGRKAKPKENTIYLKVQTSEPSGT

[2] = Yan et al. ASCPT 2021 poster, cited from earlier work
rabbits = assay: Rabbit embryofetal development study; type: in vivo
[3] = Rabbit embryofetal development study; type: in vivo; settings: female, rabbit, in vivo, po; plasma toxicokinetics on Gestational Day 19, 120 mg/kg/day; read-out: AUC0-24 at rabbit EFD NOEL
CYP3A [4] = assay: In vitro drug-drug interaction studies: CYP3A inhibition; type: in vitro ADME; settings: based upon in vitro studies
[5] = AUC in animals/(predicted) AUC in humans

CN1C(=O)[C@@H](NC(=O)c2n[nH]c(Cc3ccccc3)n2)COc2ccc(C#CC(C)(C)O)cc21 [Compound I, (S)-5-benzyl-N-(7-(3-hydroxy-3-methylbut-1-yn-1-yl)-5-methyl-4-oxo-2,3,4,5-tetrahydrobenzo[b][1,4]oxazepin-3-yl)-1H-1,2,4-triazole-3-carboxamide]
inhibition of substrates of OATP2B1 transporter (OATP2B1): may also inhibit
induction of CYP3A (CYP3A [1]): weak inducer
inhibition of drugs metabolized by CYP2D6 (CYP2D6): may inhibit
inhibition of drugs metabolized by CYP2C9 (CYP2C9): may inhibit
inhibition of substrates of OCT1 transporter (OCT1): may also inhibit
safety and tolerability ([2]; following single and multiple doses): generally safe, and well tolerated
pharmacokinetics linearity ([2]; tested dose range up to 1000 mg): linear pharmacokinetics
Margin of Safety, rabbit EFD NOEL vs human 50 mg (rabbits; [5]): 29 X
Margin of Safety, rabbit EFD NOEL vs human 125 mg (rabbits; [5]): 12 X
developmental and reproductive toxicology outcome, rabbits (rabbits; concerns for women of childbearing potential): did not reveal any concerns
Rabbit EFD NOEL dose (rabbits; rabbit embryofetal development study): 120 mg/kg/day
AUC(0-t) [3]: 464 µg·h/mL
inhibition of drugs metabolized by CYP3A (CYP3A [4]): may inhibit
